One compound from ChEMBL document CHEMBL5131534, “Identification of 2-Pyridinylindole-Based Dual Antagonists of Toll-like Receptors 7 and 8 (TLR7/8)” (ACS Med Chem Lett, 2022) can be followed below.

One series deals with T1, Toll-like receptor 3 (Homo sapiens, UniProt O15455).
T1 sequence (O15455 whole entry): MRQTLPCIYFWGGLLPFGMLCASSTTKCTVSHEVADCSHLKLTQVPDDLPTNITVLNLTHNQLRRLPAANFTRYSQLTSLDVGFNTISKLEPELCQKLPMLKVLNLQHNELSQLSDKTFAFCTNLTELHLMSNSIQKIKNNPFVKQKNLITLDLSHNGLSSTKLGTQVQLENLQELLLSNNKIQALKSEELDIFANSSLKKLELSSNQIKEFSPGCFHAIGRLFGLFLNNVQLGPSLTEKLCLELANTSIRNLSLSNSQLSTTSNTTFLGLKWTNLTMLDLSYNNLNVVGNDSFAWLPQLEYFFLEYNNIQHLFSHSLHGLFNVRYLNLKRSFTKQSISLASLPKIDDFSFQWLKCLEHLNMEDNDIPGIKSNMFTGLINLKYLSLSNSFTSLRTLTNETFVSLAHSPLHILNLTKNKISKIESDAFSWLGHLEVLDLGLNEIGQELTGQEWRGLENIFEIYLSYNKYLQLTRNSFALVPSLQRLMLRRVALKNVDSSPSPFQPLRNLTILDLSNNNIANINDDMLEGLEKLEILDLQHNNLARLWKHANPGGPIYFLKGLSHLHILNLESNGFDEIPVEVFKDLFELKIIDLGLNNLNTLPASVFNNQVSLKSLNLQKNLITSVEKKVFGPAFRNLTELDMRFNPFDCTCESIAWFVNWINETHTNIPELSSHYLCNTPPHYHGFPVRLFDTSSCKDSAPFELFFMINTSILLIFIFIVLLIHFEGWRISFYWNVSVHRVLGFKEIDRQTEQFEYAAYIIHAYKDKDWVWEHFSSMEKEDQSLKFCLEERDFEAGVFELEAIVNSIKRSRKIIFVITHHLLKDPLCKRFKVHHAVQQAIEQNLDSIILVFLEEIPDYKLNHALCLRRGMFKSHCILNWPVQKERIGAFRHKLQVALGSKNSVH
The series is described as follows: Antagonist activity at […] stimulated human TRL3 overexpressed in HEK293 cells assessed as inhibition of NF kappa B/Ap-1 activation preincubated with compound for 30 mins followed by […] stimulation measured after 22 hrs by SEAP reporter assay. In kind it is cell-based. In general terms: A reporter such as luciferase makes a cellular process visible.

For a further series, the target named is T2, Toll-like receptor 7 (Mus musculus, UniProt P58681).
T2 sequence (P58681 whole entry): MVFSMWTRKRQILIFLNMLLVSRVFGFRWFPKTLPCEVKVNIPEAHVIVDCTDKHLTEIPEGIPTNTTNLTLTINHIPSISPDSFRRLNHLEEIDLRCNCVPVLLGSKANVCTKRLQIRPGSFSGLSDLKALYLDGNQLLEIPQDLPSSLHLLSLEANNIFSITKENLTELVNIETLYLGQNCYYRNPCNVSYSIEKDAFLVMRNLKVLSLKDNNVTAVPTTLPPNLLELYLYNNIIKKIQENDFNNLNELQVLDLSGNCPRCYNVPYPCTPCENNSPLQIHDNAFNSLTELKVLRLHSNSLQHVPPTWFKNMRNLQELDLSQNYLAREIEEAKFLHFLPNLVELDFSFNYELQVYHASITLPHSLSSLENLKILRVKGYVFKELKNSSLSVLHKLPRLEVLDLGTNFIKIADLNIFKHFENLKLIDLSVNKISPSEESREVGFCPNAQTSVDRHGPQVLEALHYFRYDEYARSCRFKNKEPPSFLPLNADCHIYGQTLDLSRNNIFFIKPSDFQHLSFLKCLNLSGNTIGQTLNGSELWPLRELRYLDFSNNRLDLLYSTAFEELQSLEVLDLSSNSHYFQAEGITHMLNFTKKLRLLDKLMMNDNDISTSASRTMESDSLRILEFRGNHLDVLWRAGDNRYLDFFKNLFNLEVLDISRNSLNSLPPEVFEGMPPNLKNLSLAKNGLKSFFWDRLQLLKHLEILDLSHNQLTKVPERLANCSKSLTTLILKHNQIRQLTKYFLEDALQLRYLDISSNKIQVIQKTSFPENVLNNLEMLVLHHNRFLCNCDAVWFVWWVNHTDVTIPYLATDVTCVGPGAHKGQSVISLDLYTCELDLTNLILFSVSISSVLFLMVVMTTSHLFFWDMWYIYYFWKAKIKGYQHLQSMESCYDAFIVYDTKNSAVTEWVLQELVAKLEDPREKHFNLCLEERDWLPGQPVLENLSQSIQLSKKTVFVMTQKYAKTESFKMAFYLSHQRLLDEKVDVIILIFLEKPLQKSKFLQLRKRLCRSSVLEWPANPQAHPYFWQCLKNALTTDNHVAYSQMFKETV
Kind of series: Antagonist activity at gardiquimod stimulated TRL7 in mouse whole blood assessed as inhibition of IL-6 production by ELISA analysis. In kind it is tissue-based. (An ELISA detects its analyte on a solid surface through an enzyme-linked reagent.)

A short description of series [1]: Tmax in mouse blood at 15 mg/kg, po. Type of series: ADME, organism-based.
Series [2] in a line: AUClast in mouse blood at 5 mg/kg, iv. In kind it is ADME, organism-based. Details: time 0 - last, dose 5 mg/kg, route iv.
Series [3] is described as follows: In vivo antagonist activity at TRL7 in C57BL/6 mouse assessed as inhibition of gardiquimod stimulated IL-6 production at […],po for 30 minutes and followed by gardiquimod addition measured after 90 mins by ELISA analysis relative to control. Type of series: functional. Details: scale not given: the % may be the effect or the level left. The following applies: time 120 min, 2 h.

Series [4] is described as follows: In vivo antagonist activity at TRL7 in C57BL/6 mouse assessed as inhibition of gardiquimod stimulated IL-6 production at 0.5 mg/kg,po for 30 minutes and followed by gardiquimod addition measured after 90 mins by ELISA analysis relative to control. Type of series: functional. Details: scale not given: the % may be the effect or the level left. The following applies: time 120 min, 2 h.

Series [5] concerns Mus musculus. Kind of series: Anti-inflammatory activity against MRL/Ipr Systemic lupus erythematosus mouse model assessed as inhibition of urinary NGAL at 0.1 mg/kg, po administered for 8 weeks and measured 24 hrs post final dose relative to control. In kind it is functional. Details: scale not given: the % may be the effect or the level left. The following applies: time 1368 hrs.

Series [6] relates to Mus musculus. Kind of series: Anti-inflammatory activity against MRL/Ipr Systemic lupus erythematosus mouse model assessed as inhibition of urinary NGAL at 20 mg/kg, po administered for 8 weeks and measured 24 hrs post final dose relative to control. In kind it is functional. Details: scale not given: the % may be the effect or the level left. The following applies: time 1368 hrs.

Series [7] has as its system Mus musculus. Kind of series: Anti-inflammatory activity against MRL/Ipr Systemic lupus erythematosus mouse model assessed as inhibition of anti-Sm/RNP Ab titer at 0.1 mg/kg, po administered for 8 weeks and measured 24 hrs post final dose relative to control. Type of series: functional. Details: scale not given: the % may be the effect or the level left. The following applies: time 1368 hrs.

Series [8] concerns Mus musculus. The series is described as follows: Anti-inflammatory activity against MRL/Ipr Systemic lupus erythematosus mouse model assessed as inhibition of anti-Sm/RNP Ab titer at 20 mg/kg, po administered for 8 weeks and measured 24 hrs post final dose relative to control. In kind it is functional. Details: scale not given: the % may be the effect or the level left. The following applies: time 1368 hrs.

Series [9] is described as follows: Toxicity in MRL/Ipr Systemic lupus erythematosus mouse model assessed as change in body weight at 0.1 to 20 mg/kg, po administered for 8 weeks and measured 24 hrs post final dose. The following applies: in vivo, 1368 h, dose 0.1-20 mg/kg. Type of series: organism-based.

Regarding `Cc1cc(-c2[nH]c3ccc(C4CCNCC4)cc3c2C(C)C)cc(C)n1`, the IC50 is more than 10000 nM on Toll-like receptor 3 and 0.3 nM at Toll-like receptor 7. In [1], the Tmax was found to be 5 h. In addition, the AUC(0-t) in series [2] amounted to 1.58 µM·h. The Activity in series [3] came to 16%; in series [4] it was 98%; in the series with Mus musculus [5] it was 52%; in the series with Mus musculus [6] it was 81%; with Mus musculus [7], 27%; in the series on Mus musculus [8], 82%. Further, the Activity entry in series [9] is reported as “Non-Toxic”.

For orientation: IC50 means the midpoint of a concentration-inhibition curve. Usually Tmax stands for the time at which the peak concentration occurs. In general, AUC(0-t) refers to exposure summed from dosing to a finite time, without extrapolation to infinity.
